Reference: ChEMBL document CHEMBL2440076, “New triarylpyrazoles as broad-spectrum anticancer agents: design, synthesis, and biological evaluation” (Eur J Med Chem, 2013)

Tests used:
[1] = system: SK-MEL-2; test: Growth inhibition of human SK-MEL-2 cells assessed as cell growth at 10 uM after 48 hrs by sulforhodamine B assay; type: functional; settings: SK-MEL-2, 48 h, read-out: Activity
[2] = system: HCT-116; test: Growth inhibition of human HCT116 cells assessed as cell growth at 10 uM after 48 hrs by sulforhodamine B assay; type: functional; settings: HCT-116, 48 h, read-out: Activity
[3] = system: NCI-H23; test: Growth inhibition of human NCI-H23 cells assessed as cell growth at 10 uM after 48 hrs by sulforhodamine B assay; type: functional; settings: NCI-H23, 48 h, read-out: Activity
[4] = system: MDA-MB-435; test: Growth inhibition of human MDA-MB-435 cells assessed as cell growth at 10 uM after 48 hrs by sulforhodamine B assay; type: functional; settings: MDA-MB-435, 48 h, read-out: Activity
[5] = system: UO-31; test: Growth inhibition of human UO31 cells assessed as cell growth at 10 uM after 48 hrs by sulforhodamine B assay; type: functional; settings: UO-31, 48 h, read-out: Activity
[6] = system: 786-0; test: Growth inhibition of human 786-0 cells assessed as cell growth at 10 uM after 48 hrs by sulforhodamine B assay; type: functional; settings: 786-0, 48 h, read-out: Activity
[7] = system: UACC-62; test: Growth inhibition of human UACC62 cells assessed as cell growth at 10 uM after 48 hrs by sulforhodamine B assay; type: functional; settings: UACC-62, 48 h, read-out: Activity
[8] = system: IGROV-1; test: Growth inhibition of human IGROV1 cells assessed as cell growth at 10 uM after 48 hrs by sulforhodamine B assay; type: functional; settings: IGROV-1, 48 h, read-out: Activity
[9] = system: ACHN; test: Growth inhibition of human ACHN cells assessed as cell growth at 10 uM after 48 hrs by sulforhodamine B assay; type: functional; settings: read-out: Activity
[10] = system: LOX IMVI; test: Growth inhibition of human LOXIMVI cells assessed as cell growth at 10 uM after 48 hrs by sulforhodamine B assay; type: functional; settings: read-out: Activity
[11] = system: SW-620; test: Growth inhibition of human SW620 cells assessed as cell growth at 10 uM after 48 hrs by sulforhodamine B assay; type: functional; settings: SW-620, 48 h, read-out: Activity
[12] = system: SF-268; test: Growth inhibition of human SF268 cells assessed as cell growth at 10 uM after 48 hrs by sulforhodamine B assay; type: functional; settings: SF-268, 48 h, read-out: Activity
[13] = system: Malme-3M; test: Growth inhibition of human MALME-3M cells assessed as cell growth at 10 uM after 48 hrs by sulforhodamine B assay; type: functional; settings: read-out: Activity
[14] = system: HOP-92; test: Growth inhibition of human HOP92 cells after 48 hrs by sulforhodamine B assay; type: functional, cell-based; settings: HOP-92, 48 h
[15] = system: IGROV-1; test: Growth inhibition of human IGROV1 cells after 48 hrs by sulforhodamine B assay; type: functional; settings: IGROV-1, 48 h
[16] = system: OVCAR-4; test: Growth inhibition of human OVCAR4 cells after 48 hrs by sulforhodamine B assay; type: functional; settings: OVCAR-4, 48 h
[17] = system: SK-OV-3; test: Growth inhibition of human SKOV3 cells after 48 hrs by sulforhodamine B assay; type: functional; settings: SK-OV-3, 48 h
[18] = system: OVCAR-5; test: Growth inhibition of human OVCAR5 cells after 48 hrs by sulforhodamine B assay; type: functional; settings: OVCAR-5, 48 h
[19] = system: A498; test: Growth inhibition of human A498 cells after 48 hrs by sulforhodamine B assay; type: functional, cell-based; settings: A498, 48 h
[20] = system: M14; test: Growth inhibition of human M14 cells after 48 hrs by sulforhodamine B assay; type: functional; settings: M14, 48 h
[21] = system: SN12C; test: Growth inhibition of human SN12C cells after 48 hrs by sulforhodamine B assay; type: functional
[22] = system: PC-3; test: Growth inhibition of human PC3 cells after 48 hrs by sulforhodamine B assay; type: functional, cell-based; settings: PC-3, 48 h
[23] = system: HOP-62; test: Growth inhibition of human HOP62 cells after 48 hrs by sulforhodamine B assay; type: functional; settings: HOP-62, 48 h
[24] = system: NCI-H522; test: Growth inhibition of human NCI-H522 cells after 48 hrs by sulforhodamine B assay; type: functional; settings: NCI-H522, 48 h
[25] = system: NCI-H460; test: Growth inhibition of human NCI-H460 cells after 48 hrs by sulforhodamine B assay; type: functional; settings: NCI-H460, 48 h
[26] = system: MCF7; test: Growth inhibition of human MCF7 cells after 48 hrs by sulforhodamine B assay; type: functional; settings: MCF7, 48 h
[27] = system: SF-268; test: Growth inhibition of human SF268 cells after 48 hrs by sulforhodamine B assay; type: functional; settings: SF-268, 48 h
[28] = system: NCI-H226; test: Growth inhibition of human NCI-H226 cells after 48 hrs by sulforhodamine B assay; type: functional; settings: NCI-H226, 48 h
[29] = system: LOX IMVI; test: Growth inhibition of human LOXIMVI cells after 48 hrs by sulforhodamine B assay; type: functional
[30] = Growth inhibition of human Hs 578T cells after 48 hrs by sulforhodamine B assay; type: functional
[31] = system: SNB-75; test: Growth inhibition of human SNB75 cells after 48 hrs by sulforhodamine B assay; type: functional; settings: SNB-75, 48 h
[32] = system: Malme-3M; test: Growth inhibition of human MALME-3M cells after 48 hrs by sulforhodamine B assay; type: functional
[33] = system: CCRF-CEM; test: Growth inhibition of human CCRF-CEM cells after 48 hrs by sulforhodamine B assay; type: functional
[34] = read-out: LC50 (the source's name)

COc1cc(-c2nn(-c3cccc(NC(=O)Nc4ccccc4)c3)cc2-c2ccncc2)ccc1Cl
growth at 10 µM [1]: 77% | growth at 10 µM [2]: 87.2% | growth at 10 µM [3]: 100% | growth at 10 µM [4]: 22.6% | growth at 10 µM [5]: 56.5% | growth at 10 µM [6]: 93.1% | growth at 10 µM [7]: 86.5% | growth at 10 µM [8]: 86.5% | growth at 10 µM [9]: 78.2% | growth at 10 µM [10]: 85.4% | growth at 10 µM [11]: 82.8% | growth at 10 µM [12]: 81.2% | growth at 10 µM [13]: 57.7%

COc1cc(-c2nn(-c3cccc(NC(=O)c4ccc(Br)c(C)c4)c3)cc2-c2ccncc2)ccc1Cl
growth at 10 µM [1]: 58.2% | growth at 10 µM [2]: 70.3% | growth at 10 µM [3]: 86.9% | growth at 10 µM [4]: 34.7% | growth at 10 µM [5]: 53.8% | growth at 10 µM [6]: 85.9% | growth at 10 µM [7]: 79.9% | growth at 10 µM [8]: 76.2% | growth at 10 µM [9]: 70.2% | growth at 10 µM [10]: 75.4% | growth at 10 µM [11]: 82.7% | growth at 10 µM [12]: 84.1% | growth at 10 µM [13]: 52.7%

Cc1cc(C(=O)Nc2cccc(-n3cc(-c4ccncc4)c(-c4ccc(Cl)c(O)c4)n3)c2)ccc1Br
growth at 10 µM [1]: 106% | growth at 10 µM [2]: 94.4% | growth at 10 µM [3]: 97.9% | growth at 10 µM [4]: 93.4% | growth at 10 µM [5]: 74.7% | growth at 10 µM [6]: 106% | growth at 10 µM [7]: 105% | growth at 10 µM [8]: 101% | growth at 10 µM [9]: 91.8% | growth at 10 µM [10]: 86.4% | growth at 10 µM [11]: 125% | growth at 10 µM [12]: 104% | growth at 10 µM [13]: 82.6%

O=C(Nc1cccc(-n2cc(-c3ccncc3)c(-c3ccc(Cl)c(O)c3)n2)c1)Nc1ccc(Cl)c(Cl)c1
growth at 10 µM [1]: -25.4% | GI50 [14]: 0.679 µM | IC50 [14]: 0.68 µM | LC50 [14]: > 32.5 µM | TGI [14]: 1.91 µM | GI50 [15]: 1.77 µM | LC50 (concentration killing 50% of cells) [15]: > 32.5 µM | TGI [15]: > 32.5 µM | GI50 [16]: 1.69 µM | LC50 (concentration killing 50% of cells) [16]: > 32.5 µM | TGI [16]: > 32.5 µM | growth at 10 µM [2]: 11.1% | GI50 [17]: 1.2 µM | TGI [17]: > 32.5 µM | CC50 [17, 34]: > 32.5 µM | GI50 [18]: 2.4 µM | LC50 (concentration killing 50% of cells) [18]: > 32.5 µM | TGI [18]: > 32.5 µM | growth at 10 µM [3]: 13.5% | GI50 [19]: 0.94 µM | IC50 [19]: 0.94 µM | TGI [19]: 3.17 µM | CC50 [19, 34]: > 32.5 µM | growth at 10 µM [4]: 9.98% | growth at 10 µM [5]: 21% | growth at 10 µM [6]: 30.1% | GI50 [20]: 1.18 µM | LC50 (concentration killing 50% of cells) [20]: > 32.5 µM | TGI [20]: 6.97 µM | GI50 [21]: 1.31 µM | TGI [21]: > 32.5 µM | CC50 [21, 34]: > 32.5 µM | growth at 10 µM [7]: 14.9% | GI50 [22]: 0.834 µM | IC50 [22]: 0.83 µM | TGI [22]: > 32.5 µM | CC50 [22, 34]: > 32.5 µM | growth at 10 µM [8]: 28.7% | GI50 [23]: 2.08 µM | TGI [23]: 17.6 µM | CC50 [23, 34]: > 32.5 µM | GI50 [24]: 1.19 µM | LC50 (concentration killing 50% of cells) [24]: > 32.5 µM | TGI [24]: 10.6 µM | growth at 10 µM [9]: 12.8% | GI50 [25]: 0.993 µM | LC50 [25]: 24.2 µM | TGI [25]: 3.57 µM | GI50 [26]: 1.06 µM | LC50 [26]: > 32.5 µM | TGI [26]: > 32.5 µM | growth at 10 µM [10]: 21.9% | growth at 10 µM [11]: 24.5% | GI50 [27]: 1.49 µM | TGI [27]: 10.9 µM | CC50 [27, 34]: > 32.5 µM | GI50 [28]: 1.51 µM | TGI [28]: > 32.5 µM | CC50 [28, 34]: > 32.5 µM | GI50 [29]: 0.939 µM | LC50 [29]: 15 µM | TGI [29]: 3.57 µM | GI50 [30]: 0.785 µM | TGI [30]: 3.15 µM | CC50 [30, 34]: > 32.5 µM | GI50 [31]: 1.09 µM | LC50 (lethal concentration, 50% net cell kill) [31]: > 32.5 µM | TGI [31]: 12.2 µM | GI50 [32]: 1.19 µM | LC50 (concentration killing 50% of starting cells) [32]: > 32.5 µM | TGI [32]: 8.1 µM | growth at 10 µM [12]: 29.1% | GI50 [33]: 1.03 µM | LC50 [33]: > 32.5 µM | TGI [33]: > 32.5 µM | growth at 10 µM [13]: 10.3%
